ChEMBL document CHEMBL4609981, “Discovery of novel nonpeptide small-molecule NRP1 antagonists: Virtual screening, molecular simulation and structural modification” (Bioorg Med Chem, 2020)
The source made the active and inactive calls. The calls are words filed in the database; no cut-off is given here.

How the values were obtained:
[1] = molecular target: T1, Neuropilin-1 (Homo sapiens, UniProt O14786); assay: (§1) Inhibition of recombinant human biotinylated VEGF-165A expressed in HEK293 cells binding to immobilized recombinant full length human FC-tagged NRP1 (chimera active) expressed in HEK293 cells at 50 uM using TMB as substrate incubated for 2 hrs followed by substrate addition by competitive ELISA relative to control
[2] = molecular target: T1, Neuropilin-1; assay: Inhibition of recombinant human biotinylated VEGF-165A expressed in HEK293 cells binding to immobilized recombinant full length human FC-tagged NRP1 (chimera active) expressed in HEK293 cells using TMB as substrate incubated for 2 hrs followed by substrate addition by competitive ELISA
[3] = molecular target: Vascular endothelial growth factor receptor 2 (Homo sapiens) (UniProt P35968); assay: Inhibition of recombinant human biotinylated VEGF-165A expressed in HEK293 cells binding to FC-tagged VEGFR2 (unknown origin) using TMB as substrate incubated for 2 hrs followed by substrate addition by competitive ELISA
[4] = molecular target: T1, Neuropilin-1; assay: as §1, with “11” for “50”
[5] = molecular target: T1, Neuropilin-1; assay: Inhibition of biotinylated VEGF-165A binding to NRP1 (unknown origin) at 10 uM measured after 2 hrs chemiluminescence analysis relative to control
[6] = molecular target: T1, Neuropilin-1; assay: Inhibition of biotinylated […] binding to NRP1 (unknown origin) measured after 2 hrs chemiluminescence analysis

T1 sequence (O14786 whole entry): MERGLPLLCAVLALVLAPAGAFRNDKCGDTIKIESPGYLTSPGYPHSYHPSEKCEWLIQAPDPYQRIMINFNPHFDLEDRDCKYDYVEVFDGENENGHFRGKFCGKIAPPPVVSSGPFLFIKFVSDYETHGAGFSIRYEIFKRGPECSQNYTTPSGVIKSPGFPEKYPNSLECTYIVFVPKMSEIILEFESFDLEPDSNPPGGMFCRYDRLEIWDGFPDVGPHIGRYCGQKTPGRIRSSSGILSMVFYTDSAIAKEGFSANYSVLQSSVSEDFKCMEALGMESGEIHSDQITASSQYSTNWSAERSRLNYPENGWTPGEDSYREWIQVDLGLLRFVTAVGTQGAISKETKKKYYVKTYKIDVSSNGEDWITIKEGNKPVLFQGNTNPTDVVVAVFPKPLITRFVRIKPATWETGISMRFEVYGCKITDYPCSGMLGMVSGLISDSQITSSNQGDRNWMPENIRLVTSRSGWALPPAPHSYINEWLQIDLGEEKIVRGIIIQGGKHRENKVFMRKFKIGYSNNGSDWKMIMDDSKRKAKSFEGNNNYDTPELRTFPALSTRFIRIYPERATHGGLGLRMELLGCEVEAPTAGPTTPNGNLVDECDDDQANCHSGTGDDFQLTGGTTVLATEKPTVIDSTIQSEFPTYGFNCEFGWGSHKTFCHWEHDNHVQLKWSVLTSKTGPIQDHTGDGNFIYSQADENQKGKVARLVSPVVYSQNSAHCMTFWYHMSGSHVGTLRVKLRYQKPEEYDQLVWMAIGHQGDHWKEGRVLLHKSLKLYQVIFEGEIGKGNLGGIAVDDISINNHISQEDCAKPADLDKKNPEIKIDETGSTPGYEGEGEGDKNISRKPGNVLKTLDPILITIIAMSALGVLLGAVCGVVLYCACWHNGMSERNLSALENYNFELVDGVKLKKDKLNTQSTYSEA
Sequence of Vascular endothelial growth factor receptor 2 (Homo sapiens) (P35968 whole entry): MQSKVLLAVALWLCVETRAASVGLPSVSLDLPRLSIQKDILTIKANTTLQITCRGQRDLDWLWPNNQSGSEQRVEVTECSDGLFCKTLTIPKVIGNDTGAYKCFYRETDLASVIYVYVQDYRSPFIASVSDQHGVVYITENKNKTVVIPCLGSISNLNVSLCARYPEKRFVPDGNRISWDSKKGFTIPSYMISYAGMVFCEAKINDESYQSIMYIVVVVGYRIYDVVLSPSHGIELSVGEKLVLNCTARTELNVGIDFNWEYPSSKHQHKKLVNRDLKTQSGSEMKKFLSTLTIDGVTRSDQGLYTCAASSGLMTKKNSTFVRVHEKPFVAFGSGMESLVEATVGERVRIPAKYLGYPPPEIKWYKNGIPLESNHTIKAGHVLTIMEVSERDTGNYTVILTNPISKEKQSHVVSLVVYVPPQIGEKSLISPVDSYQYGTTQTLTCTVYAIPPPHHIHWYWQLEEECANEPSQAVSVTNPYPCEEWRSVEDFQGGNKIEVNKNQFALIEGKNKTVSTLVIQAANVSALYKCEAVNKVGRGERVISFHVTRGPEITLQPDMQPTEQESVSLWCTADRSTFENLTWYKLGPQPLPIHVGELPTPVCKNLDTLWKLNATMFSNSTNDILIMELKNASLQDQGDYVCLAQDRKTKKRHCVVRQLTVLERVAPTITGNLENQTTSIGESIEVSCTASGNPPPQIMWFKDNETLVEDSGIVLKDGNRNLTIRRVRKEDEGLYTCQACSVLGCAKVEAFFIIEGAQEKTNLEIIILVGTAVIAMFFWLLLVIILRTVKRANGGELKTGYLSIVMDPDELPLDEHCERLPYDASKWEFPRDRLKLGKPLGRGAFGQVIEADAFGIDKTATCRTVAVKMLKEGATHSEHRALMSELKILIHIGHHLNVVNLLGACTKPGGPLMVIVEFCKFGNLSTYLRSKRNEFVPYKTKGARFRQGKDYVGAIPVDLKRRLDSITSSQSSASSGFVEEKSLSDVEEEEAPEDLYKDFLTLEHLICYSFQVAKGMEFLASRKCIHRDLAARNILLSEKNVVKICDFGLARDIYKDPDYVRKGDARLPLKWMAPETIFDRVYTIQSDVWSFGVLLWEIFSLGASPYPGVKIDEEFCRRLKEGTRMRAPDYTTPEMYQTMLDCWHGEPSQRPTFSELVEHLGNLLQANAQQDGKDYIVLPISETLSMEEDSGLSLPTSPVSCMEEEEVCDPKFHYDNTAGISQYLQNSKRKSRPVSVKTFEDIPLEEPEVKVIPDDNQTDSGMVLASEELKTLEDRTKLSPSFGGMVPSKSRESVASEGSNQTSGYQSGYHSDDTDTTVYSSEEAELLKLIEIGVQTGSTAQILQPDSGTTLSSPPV

Q: For `CCc1nnc(NC(=O)CSc2nnc(-c3cccnc3)n2-c2cccc(C)c2)s1`, which inhibition [1] is on record?
A: Its inhibition is 0%.

Q: With `CCc1nnc(NC(=O)CSc2nncn2-c2cccc(Cl)c2)s1` as the compound, how does the inhibition [1] read?
A: Its inhibition is 0%.

Q: How did the IC50 [2] turn out when `CCc1nnc(NC(=O)CSc2nnc(-c3ccc(C)cc3)n2-c2cccc(C)c2)s1` was run?
A: Its IC50 is 19.1 µM.

Q: What about the inhibition [1] of the same compound?
A: The inhibition was 76%.

Q: And the inhibition [3]?
A: Its inhibition is “Active”.

Q: `CCc1nnc(NC(=O)CSc2nnc(-c3ccc(N)cc3)n2-c2cccc(C)c2)s1` was tested. Which inhibition [1] did it give?
A: Its inhibition is 15.4%.

Q: Which inhibition [1] does the source give for `COCc1nnc(NC(=O)CSc2nnc(-c3ccccc3)n2-c2cccc(C)c2)s1` here?
A: Its inhibition is 10.3%.

Q: How did the inhibition [1] turn out when `CCc1nnc(NC(=O)CSc2nnc(-c3ccc(Cl)cc3)n2-c2cccc(C)c2)s1` was run?
A: Its inhibition is 37.4%.

Q: With `CCc1nnc(NC(=O)CSc2nnc(-c3ccccc3)n2-c2cccc(Cl)c2)s1` as the compound, how does the inhibition [1] read?
A: The inhibition was 47.6%.

Q: For `N=C(N)NCCC[C@H](NC(=O)c1sccc1NS(=O)(=O)c1cccc2nsnc12)C(=O)O`, which IC50 [2] is on record?
A: The IC50 was 11.1 to 12.7 µM.

Q: What about the inhibition [4] of the same compound?
A: Its inhibition is 49.1 to 49.8%.

Q: And the inhibition [3]?
A: The inhibition was “Active”.

Q: Which inhibition [1] does the source give for `CCc1nnc(NC(=O)CSc2nnc(-c3ccccc3)n2-c2ccccc2)s1` here?
A: Its inhibition is 4.8%.

Q: `O=C(CSc1nnc(-c2ccccc2)n1-c1cccc(Cl)c1)Nc1nccs1` was tested. Which inhibition [1] did it give?
A: Its inhibition is 4%.

Q: `CCc1nnc(NC(=O)CSc2nnc(-c3ccccc3)n2-c2cccc(C)c2)s1` was tested. Which IC50 [2] did it give?
A: Its IC50 is 41.1 µM.

Q: What about the inhibition [1] of the same compound?
A: The inhibition was 66.6%.

Q: For `CCc1nnc(NC(=O)CSc2nnc(-c3ccccc3)n2-c2cccnc2)s1`, which inhibition [1] is on record?
A: The inhibition was 0%.

Q: How did the inhibition [1] turn out when `CCc1nnc(NC(=O)CSc2nnc(Cc3ccccc3)n2-c2cccc(C)c2)s1` was run?
A: The inhibition was 4.3%.

Q: How did the inhibition [1] turn out when `CCc1nnc(NC(=O)CSc2nnc(-c3ccccc3)n2-c2cccc(OC)c2)s1` was run?
A: The inhibition was 0%.

Q: How did the inhibition [1] turn out when `CCCc1nnc(NC(=O)CSc2nnc(-c3ccccc3)n2-c2cccc(C)c2)s1` was run?
A: The inhibition was 47.8%.

Q: For `CCc1nnc(NC(=O)CSc2nnc(-c3ccccc3)n2-c2ccccc2Cl)s1`, which inhibition [1] is on record?
A: The inhibition was 5.3%.

Q: With `CCc1nnc(NC(=O)CSc2nnc(-c3ccccc3)n2Cc2cccc(C)c2)s1` as the compound, how does the inhibition [1] read?
A: The inhibition was 4.1%.

Q: Which inhibition [5] does the source give for `CCOc1ccccc1NC(=O)c1ccc(C)c(S(=O)(=O)Nc2ccc(C)cc2)c1` here?
A: Its inhibition is 32%.

Q: Which inhibition [1] does the source give for `Cc1cccc(-n2c(SCC(=O)Nc3nnc(C)s3)nnc2-c2ccccc2)c1` here?
A: The inhibition was 31.5%.

Q: With `CCc1nnc(NC(=O)CSc2nnc(-c3cccc(C)c3)n2-c2cccc(C)c2)s1` as the compound, how does the inhibition [1] read?
A: Its inhibition is 12.6%.

Q: With `CCc1nnc(NC(=O)CSc2nnc(-c3ccccc3)n2-c2cccc(F)c2)s1` as the compound, how does the inhibition [1] read?
A: Its inhibition is 6%.

Q: `O=C(CSc1nnc(-c2ccccc2)n1-c1cccc(Cl)c1)Nc1nncs1` was tested. Which inhibition [1] did it give?
A: Its inhibition is 20.3%.

Q: `CCc1nnc(NC(=O)CSc2nnc(-c3ccccc3)n2-c2ccc(Cl)cc2)s1` was tested. Which inhibition [1] did it give?
A: Its inhibition is 3.2%.

Q: How did the inhibition [1] turn out when `O=C(CSc1nnc(-c2ccccc2)n1-c1cccc(Cl)c1)Nc1nnc(C2CC2)s1` was run?
A: Its inhibition is 22.5%.

Q: How did the IC50 [6] turn out when `Cc1ccc(-c2nc3ccccc3[nH]2)cc1NC(=S)NC(=O)c1ccc2c(c1)OCCO2` was run?
A: The IC50 was 34 µM.

Q: For `CCc1nnc(NC(=O)CSc2nnc(-c3ccc(O)cc3)n2-c2cccc(C)c2)s1`, which IC50 [2] is on record?
A: Its IC50 is 41.7 µM.

Q: And the inhibition [1]?
A: The inhibition was 59.9%.

Q: For `CCc1nnc(NC(=O)CSc2nnc(-c3ccccc3)[nH]2)s1`, which inhibition [1] is on record?
A: Its inhibition is 2.1%.
